Reference: patent US12509445B2, “Herbicidally active 4-cyclopropyl-6-[4-(trifluormethyl)pyrazol-1-yl)]pyrimidines” (Bayer Aktiengesellschaft, priority 2019, dated 2025)

Assays:
Format in all cases: in vivo
[1] = test system: harmful plants such as Abutilon theophrasti, Alopecurus myosuroides, Amaranthus retroflexus, Avena fatua, Echinochloa crus-galli, Matricaria inodora, Pharbitis …; assay: Post-emergence herbicidal action, summary in text; details: post-emergence treatment
Procedure: (§1) Seeds of monocotyledonous and dicotyledonous weeds and crop plants are placed in sandy loam in plastic or organic plant pots, covered with soil and cultivated in a greenhouse under controlled growth conditions. 2 to 3 weeks after sowing, the test plants are treated at the one-leaf stage. The compounds of the invention, formulated in the form of wettable powders (WP) or as emulsion concentrates (EC), are then sprayed onto the green parts of the plants as aqueous suspension or emulsion with addition of 0.5% additive at a water application rate of 600 l/ha (converted). After the test plants have been kept in the greenhouse under optimum growth conditions for about 3 weeks, the activity of the preparations is rated visually in comparison to untreated controls. For example, 100% activity=the plants have died, 0% activity=like control plants.
In this case, for example, in the post-emergence process, the compounds No. 1-001 and 111-001 have very good herbicidal activity (80% to 100% herbicidal action) against harmful plants such as Abutilon theophrasti, Alopecurus myosuroides, Amaranthus retroflexus, Avena fatua, Echinochloa crus-galli, Matricaria inodora, Pharbitis purpurea, Setaria viridis, Stellaria media, Veronica persica and Viola tricolor at an application rate of 0.32 kg of active substance or less per hectare. At the same time, some compounds according to the invention leave graminaceous crops such as barley, wheat, rye, millet/sorghum, maize, rice or sugarcane virtually undamaged when applied by the post-emergence method, even at high active compound dosages. Some substances are additionally also benign to dicotyledonous crops such as soya, cotton, oilseed rape or sugarbeet.

[2] = test system: Echinochloa crus-galli (ECHCG); assay: Pre-emergence herbicidal action; details: for Herbicidal action against ECHCG: 80 g of a.i./ha, comparative test
Description: (§2) The abbreviations used here have the following meanings: • ABUTH Abutilon theophrasti • AMARE Amaranlhus retroflexus • CYPES Cyperus serotinus • ECHCGEchinocloa crus galli • LOLRI Lolium rigidum Gaudin • PHBPU Pharbitis purpurcum • SETVI Setaria viridis • VERPE Veronica persica • ALOMY Alopccurus myosuroides • AVEFA Avena fatua • DIGSA Digitaria sanguinalis • LOLMU Lolium multiflorum • MATIN Matricaria inodora • POLCO Polygonum convolvulus • STEME Stellaria media • VIOTR Viola tricolor
(§3) Seeds of monocotyledonous and dicotyledonous weed plants and crop plants are placed in plastic or organic plant pots and covered with soil. The compounds of the invention, formulated in the form of wettable powders (WP) or as emulsion concentrates (EC), are then applied onto the surface of the covering soil as aqueous suspension or emulsion with addition of 0.5% additive at a water application rate of 600 l/ha (converted). After the treatment, the pots are placed in a greenhouse and kept under good growth conditions for the trial plants. After about 3 weeks, the effect of the preparations is scored visually in comparison with untreated controls as percentages. For example, 100% activity=the plants have died, 0% activity=like control plants.
(§4) The compounds according to the invention were tested by the post-emergence and pre-emergence methods under the conditions described above for comparative purposes with the structurally closest compounds known from WO 2005/089551 A1 (D1).

[3] = test system: Matricaria inodora (MATIN); assay: Pre-emergence herbicidal action; details: for Herbicidal action against MATIN: 80 g of a.i./ha, comparative test; for Pre-emergence action MATIN: 320 g/ha, visual scoring after about 3 weeks vs untreated controls, 100% = plants have died
Description: as §2, §3, §4

Setaria viridis (SETVI) [4] = assay: Pre-emergence herbicidal action; details: for Herbicidal action against SETVI: 80 g of a.i./ha, comparative test; for Pre-emergence action SETVI: 320 g/ha, visual scoring after about 3 weeks vs untreated controls, 100% = plants have died
Description: as §2, §3, §4

Stellaria media (STEME) [5] = assay: Pre-emergence herbicidal action; details: for Pre-emergence action STEME: 320 g/ha, visual scoring after about 3 weeks vs untreated controls, 100% = plants have died
Description: as §2, §3, §4

[6] = test system: Alopecurus myosuroides (ALOMY); assay: Pre-emergence herbicidal action; details: for Herbicidal action against ALOMY: 80 g of a.i./ha, comparative test; for Pre-emergence action ALOMY: 320 g/ha, visual scoring after about 3 weeks vs untreated controls, 100% = plants have died
Description: as §2, §3, §4

Viola tricolor (VIOTR) [7] = assay: Pre-emergence herbicidal action; details: for Herbicidal action against VIOTR: 80 g of a.i./ha, comparative test; for Pre-emergence action VIOTR: 320 g/ha, visual scoring after about 3 weeks vs untreated controls, 100% = plants have died
Description: as §2, §3, §4

[8] = test system: Polygonum convolvulus (POLCO); assay: Pre-emergence herbicidal action; details: for Herbicidal action against POLCO: 80 g of a.i./ha, comparative test
Description: as §2, §3, §4

[9] = test system: Amaranthus retroflexus (AMARE); assay: Post-emergence herbicidal action; details: 320 g/ha, visual rating after about 3 weeks vs untreated controls, 100% = plants have died
Procedure: as §1, §2

Viola tricolor (VIOTR) [10] = assay: Post-emergence herbicidal action; details: 320 g/ha, visual rating after about 3 weeks vs untreated controls, 100% = plants have died
Procedure: as §1, §2

Veronica persica (VERPE) [11] = assay: Post-emergence herbicidal action; details: 320 g/ha, visual rating after about 3 weeks vs untreated controls, 100% = plants have died
Procedure: as §1, §2

[12] = test system: Pharbitis purpurea (PHBPU); assay: Pre-emergence herbicidal action; details: 320 g/ha, visual scoring after about 3 weeks vs untreated controls, 100% = plants have died
Description: as §2, §3

[13] = test system: Amaranthus retroflexus (AMARE); assay: Pre-emergence herbicidal action; details: 320 g/ha, visual scoring after about 3 weeks vs untreated controls, 100% = plants have died
Description: as §2, §3

Veronica persica (VERPE) [14] = assay: Pre-emergence herbicidal action; details: 320 g/ha, visual scoring after about 3 weeks vs untreated controls, 100% = plants have died
Description: as §2, §3

[15] = test system: Echinochloa crus-galli (ECHCG); assay: Post-emergence herbicidal action; details: for Post-emergence action ECHCG: 320 g/ha, visual rating after about 3 weeks vs untreated controls, 100% = plants have died
Procedure: as §1, §2, §4

[16] = test system: Matricaria inodora (MATIN); assay: Post-emergence herbicidal action
Procedure: as §1, §2, §4

Setaria viridis (SETVI) [17] = assay: Post-emergence herbicidal action; details: for Post-emergence action SETVI: 320 g/ha, visual rating after about 3 weeks vs untreated controls, 100% = plants have died
Procedure: as §1, §2, §4

Stellaria media (STEME) [18] = assay: Post-emergence herbicidal action; details: 320 g/ha, visual rating after about 3 weeks vs untreated controls, 100% = plants have died
Procedure: as §1, §2, §4

[19] = test system: Lolium multiflorum (LOLMU); assay: Post-emergence herbicidal action; details: 320 g/ha, visual rating after about 3 weeks vs untreated controls, 100% = plants have died
Procedure: as §1, §2, §4

Avena fatua (AVEFA) = assay: Post-emergence herbicidal action; details: 320 g/ha, visual rating after about 3 weeks vs untreated controls, 100% = plants have died
Procedure: as §1, §2, §4

[20] = test system: Abutilon theophrasti (ABUTH); assay: Post-emergence herbicidal action; details: 320 g/ha, visual rating after about 3 weeks vs untreated controls, 100% = plants have died
Procedure: as §1, §2, §4

[21] = test system: Digitaria sanguinalis (DIGSA); assay: Pre-emergence herbicidal action; details: 320 g/ha, visual scoring after about 3 weeks vs untreated controls, 100% = plants have died
Description: as §2, §3

[22] = test system: Lolium rigidum Gaudin (LOLRI); assay: Pre-emergence herbicidal action; details: 320 g/ha, visual scoring after about 3 weeks vs untreated controls, 100% = plants have died
Description: as §2, §3

[23] = test system: Abutilon theophrasti (ABUTH); assay: Pre-emergence herbicidal action; details: 320 g/ha, visual scoring after about 3 weeks vs untreated controls, 100% = plants have died
Description: as §2, §3

[24] = test system: Alopecurus myosuroides (ALOMY); assay: Post-emergence herbicidal action
Procedure: as §1, §2, §4

[25] = 320 g/ha, visual scoring after about 3 weeks vs untreated controls, 100% = plants have died
[26] = 320 g/ha, visual rating after about 3 weeks vs untreated controls, 100% = plants have died
[27] = 80 g of a.i./ha, comparative test

SMILES | Herbicidal action against ECHCG [2] [%] | Herbicidal action against MATIN [3] [%] | Pre-emergence action MATIN [3] [%] | Herbicidal action against SETVI (Setaria viridis (SETVI) [4]) [%] | Pre-emergence action SETVI (Setaria viridis (SETVI) [4]) [%] | Pre-emergence action STEME (Stellaria media (STEME) [5]) [%] | Herbicidal action against ALOMY [6] [%] | Pre-emergence action ALOMY [6] [%] | Herbicidal action against VIOTR (Viola tricolor (VIOTR) [7]) [%] | Pre-emergence action VIOTR (Viola tricolor (VIOTR) [7]) [%] | Herbicidal action against POLCO [8] [%] | Post-emergence action AMARE [9] [%] | Post-emergence action VIOTR (Viola tricolor (VIOTR) [10]) [%] | Post-emergence action VERPE (Veronica persica (VERPE) [11]) [%] | Pre-emergence action PHBPU [12] [%] | Pre-emergence action AMARE [13] [%] | Pre-emergence action VERPE (Veronica persica (VERPE) [14]) [%] | Post-emergence action ECHCG [15] [%] | Post-emergence action SETVI (Setaria viridis (SETVI) [17]) [%] | Post-emergence action STEME (Stellaria media (STEME) [18]) [%] | also measured
FC(F)(F)c1cccc(Oc2nc(C3CC3)cc(-n3cc(C(F)(F)F)cn3)n2)c1 [II-001] | 80 | 80 | 100 | 90 | 100 | 90 | 60 | 100 | 90 | 90 | 20 | 90 | 100 | 100 | 80 | 90 | 90 | 80 | 80 | 90 | herbicidal action against harmful plants (in words) [1]: good herbicidal action; Pre-emergence action ECHCG [2, 25]: 80%; Post-emergence action MATIN [16, 26]: 80%; Post-emergence action LOLMU [19]: 70%; Post-emergence action AVEFA (Avena fatua (AVEFA)): 50%; Post-emergence action ABUTH [20]: 90%
FC(F)(F)Oc1cccc(Oc2nc(C3CC3)cc(-n3cc(C(F)(F)F)cn3)n2)c1 [II-004] | 30 | 80 | 100 | 100 | 100 | 100 | 70 | 90 | 100 | 100 | 50 | 90 | 90 | 90 | 80 | 100 | 100 | 90 | 90 | 80 | Herbicidal action against STEME (Stellaria media (STEME) [5]; [27]): 70%; Pre-emergence action POLCO [8, 25]: 90%; Pre-emergence action DIGSA [21]: 100%; Pre-emergence action LOLRI [22]: 90%; Pre-emergence action ABUTH [23]: 80%; Herbicidal action against ECHCG [15, 27]: 40%; Herbicidal action against MATIN [16, 27]: 40%; Herbicidal action against SETVI (Setaria viridis (SETVI) [17]; [27]): 50%; Herbicidal action against ALOMY [24, 27]: 50%; Post-emergence action ALOMY [24, 26]: 80%
